Activity calls are given as the source filed them.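 Rule for the calls: active = target gene mRNA expression lowered over 20% below the solvent-only control in each of three panels; inactive = the rest.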
Assays:
Experiment in all cases: IL-17 and IL-23R mRNA reduction by inverse agonists – cell-based, qPCR, endogenous IL-17 and IL-23R, fluorescence, mechanism study for RORC inverse agonist project, late-stage follow-up (AID 624278)
IL-17 = settings: EL-4 murine T cells, IL-17/IL-23R qPCR, PMA/ionomycin, at 5 µM, stronger effect = lower value
IL-23R = settings: EL-4 murine T cells, IL-17/IL-23R qPCR, PMA/ionomycin, at 5 µM, stronger effect = lower value
[1] = target: Interleukin-17A (Mus musculus) (UniProt Q62386); settings: EL-4 murine T cells, IL-17/IL-23R qPCR, PMA/ionomycin; IL-17; Protein
Interleukin-17A (Mus musculus), sequence (Q62386 whole entry, looked up): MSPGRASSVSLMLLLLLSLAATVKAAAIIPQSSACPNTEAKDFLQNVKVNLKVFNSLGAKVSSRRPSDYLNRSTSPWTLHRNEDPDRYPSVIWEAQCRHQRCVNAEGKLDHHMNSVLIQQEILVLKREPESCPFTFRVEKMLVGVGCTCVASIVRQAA

- outcome [1]: active
Structure (SMILES): OC(c1ccc(-c2ccc(CN3CCN(Cc4ccncc4)CC3)cc2)c(F)c1)(C(F)(F)F)C(F)(F)F
- relative protein level (IL-17; IL-17 protein level): 0.6
- relative gene expression (IL-17; mRNA): 0.1
- relative gene expression (IL-23R): 0.2

— PubChem BioAssay AID624278 (The Scripps Research Institute Molecular Screening Center, 2012)
